Laboratory results: ChEMBL document CHEMBL3991601, “The target landscape of clinical kinase drugs” (Science, 2017)
Calls of active or inactive are those of the source. Rule as the data show it, for most assays here: actives have a measured Kd and inactives only a lower limit.

Columns and labels:
[1] = biological target: Tyrosine-protein kinase ABL2 (Homo sapiens, UniProt P42684)
[2] = biological target: T1, Adenine phosphoribosyltransferase (Homo sapiens, UniProt P07741)
T1 sequence (P07741 whole entry): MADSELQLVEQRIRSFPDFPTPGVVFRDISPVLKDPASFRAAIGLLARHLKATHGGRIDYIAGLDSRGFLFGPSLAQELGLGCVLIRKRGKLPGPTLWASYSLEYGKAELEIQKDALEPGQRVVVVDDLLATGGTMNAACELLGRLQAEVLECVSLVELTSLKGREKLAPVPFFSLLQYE

Ephrin type-A receptor 2 = Ephrin type-A receptor 2 (Homo sapiens, UniProt P29317)
Ephrin type-A receptor 2, sequence (P29317 whole entry): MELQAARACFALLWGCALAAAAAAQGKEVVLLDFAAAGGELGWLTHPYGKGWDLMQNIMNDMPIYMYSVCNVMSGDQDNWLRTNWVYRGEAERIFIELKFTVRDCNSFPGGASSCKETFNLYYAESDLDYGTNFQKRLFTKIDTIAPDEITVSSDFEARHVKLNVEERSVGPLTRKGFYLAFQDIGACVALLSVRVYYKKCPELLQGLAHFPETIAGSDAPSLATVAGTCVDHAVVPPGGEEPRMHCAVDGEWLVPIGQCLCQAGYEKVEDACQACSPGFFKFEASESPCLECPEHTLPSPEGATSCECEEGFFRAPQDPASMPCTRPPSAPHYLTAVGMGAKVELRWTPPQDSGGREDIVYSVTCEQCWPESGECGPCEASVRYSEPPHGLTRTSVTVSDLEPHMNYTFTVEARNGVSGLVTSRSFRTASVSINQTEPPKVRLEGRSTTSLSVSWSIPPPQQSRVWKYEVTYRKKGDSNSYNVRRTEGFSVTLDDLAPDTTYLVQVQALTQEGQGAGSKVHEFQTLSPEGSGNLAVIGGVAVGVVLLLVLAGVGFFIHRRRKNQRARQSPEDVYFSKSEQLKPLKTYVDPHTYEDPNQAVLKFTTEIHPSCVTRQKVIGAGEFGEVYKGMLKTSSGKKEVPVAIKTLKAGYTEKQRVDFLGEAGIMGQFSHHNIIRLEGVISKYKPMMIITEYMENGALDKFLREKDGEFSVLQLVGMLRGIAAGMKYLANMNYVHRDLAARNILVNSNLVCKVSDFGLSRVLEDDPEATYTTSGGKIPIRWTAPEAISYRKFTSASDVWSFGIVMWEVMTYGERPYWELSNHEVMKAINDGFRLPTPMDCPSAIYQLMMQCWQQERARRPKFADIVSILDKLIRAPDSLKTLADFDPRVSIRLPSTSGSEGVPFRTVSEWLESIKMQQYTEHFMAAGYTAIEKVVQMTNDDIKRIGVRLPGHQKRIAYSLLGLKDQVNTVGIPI

[3] = biological target: T2, Serine/threonine-protein kinase ICK (Homo sapiens, UniProt Q9UPZ9)
T2 sequence (Q9UPZ9 whole entry): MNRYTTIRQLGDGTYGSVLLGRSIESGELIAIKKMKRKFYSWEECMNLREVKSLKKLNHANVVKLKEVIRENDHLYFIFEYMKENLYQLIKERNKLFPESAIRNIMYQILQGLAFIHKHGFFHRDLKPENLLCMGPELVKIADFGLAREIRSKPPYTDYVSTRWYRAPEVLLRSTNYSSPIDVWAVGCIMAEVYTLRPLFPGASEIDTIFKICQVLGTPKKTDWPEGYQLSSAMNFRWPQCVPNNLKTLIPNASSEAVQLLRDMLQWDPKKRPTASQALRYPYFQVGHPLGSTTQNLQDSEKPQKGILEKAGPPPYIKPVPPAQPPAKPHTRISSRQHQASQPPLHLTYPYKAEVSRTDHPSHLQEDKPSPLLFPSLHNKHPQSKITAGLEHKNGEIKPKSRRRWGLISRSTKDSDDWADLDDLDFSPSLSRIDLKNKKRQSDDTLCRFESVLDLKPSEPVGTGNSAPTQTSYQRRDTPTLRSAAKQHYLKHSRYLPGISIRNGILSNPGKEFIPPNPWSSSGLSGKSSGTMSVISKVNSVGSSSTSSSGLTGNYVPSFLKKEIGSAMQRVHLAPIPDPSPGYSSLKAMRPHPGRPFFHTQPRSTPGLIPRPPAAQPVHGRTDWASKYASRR

[4] = biological target: T3, Interleukin-1 receptor-associated kinase 3 (Homo sapiens, UniProt Q9Y616)
T3 sequence (Q9Y616 whole entry): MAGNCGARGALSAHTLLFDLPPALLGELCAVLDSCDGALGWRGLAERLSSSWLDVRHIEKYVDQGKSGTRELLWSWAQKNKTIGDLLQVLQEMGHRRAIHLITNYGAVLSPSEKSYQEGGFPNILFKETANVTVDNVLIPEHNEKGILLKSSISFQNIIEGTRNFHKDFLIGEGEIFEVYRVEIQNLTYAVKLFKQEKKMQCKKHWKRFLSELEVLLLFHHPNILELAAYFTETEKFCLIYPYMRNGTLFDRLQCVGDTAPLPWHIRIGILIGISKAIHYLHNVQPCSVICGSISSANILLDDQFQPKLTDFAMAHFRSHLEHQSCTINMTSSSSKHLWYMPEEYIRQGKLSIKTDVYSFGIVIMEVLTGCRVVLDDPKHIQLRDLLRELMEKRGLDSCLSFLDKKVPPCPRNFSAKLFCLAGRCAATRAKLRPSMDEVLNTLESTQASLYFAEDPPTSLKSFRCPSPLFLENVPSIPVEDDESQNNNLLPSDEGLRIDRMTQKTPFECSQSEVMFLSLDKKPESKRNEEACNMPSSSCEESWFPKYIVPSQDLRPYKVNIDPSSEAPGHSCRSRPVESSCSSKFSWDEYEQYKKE

Obg-like ATPase 1 = Obg-like ATPase 1 (Homo sapiens, UniProt Q9NTK5)
Obg-like ATPase 1, sequence (Q9NTK5 whole entry, looked up): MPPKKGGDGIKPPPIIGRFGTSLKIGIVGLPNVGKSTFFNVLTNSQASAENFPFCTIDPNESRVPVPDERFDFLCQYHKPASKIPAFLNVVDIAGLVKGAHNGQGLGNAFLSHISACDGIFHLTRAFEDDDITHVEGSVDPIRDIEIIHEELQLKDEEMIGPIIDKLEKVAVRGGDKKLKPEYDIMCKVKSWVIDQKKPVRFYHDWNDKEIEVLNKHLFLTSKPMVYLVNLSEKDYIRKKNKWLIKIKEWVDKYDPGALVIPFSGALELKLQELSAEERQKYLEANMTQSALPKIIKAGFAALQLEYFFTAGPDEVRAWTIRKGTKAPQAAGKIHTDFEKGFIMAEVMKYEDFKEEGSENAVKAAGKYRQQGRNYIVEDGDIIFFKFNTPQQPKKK

[5] = biological target: T4, Serine/threonine-protein kinase D2 (Homo sapiens, UniProt Q9BZL6)
T4 sequence (Q9BZL6 whole entry): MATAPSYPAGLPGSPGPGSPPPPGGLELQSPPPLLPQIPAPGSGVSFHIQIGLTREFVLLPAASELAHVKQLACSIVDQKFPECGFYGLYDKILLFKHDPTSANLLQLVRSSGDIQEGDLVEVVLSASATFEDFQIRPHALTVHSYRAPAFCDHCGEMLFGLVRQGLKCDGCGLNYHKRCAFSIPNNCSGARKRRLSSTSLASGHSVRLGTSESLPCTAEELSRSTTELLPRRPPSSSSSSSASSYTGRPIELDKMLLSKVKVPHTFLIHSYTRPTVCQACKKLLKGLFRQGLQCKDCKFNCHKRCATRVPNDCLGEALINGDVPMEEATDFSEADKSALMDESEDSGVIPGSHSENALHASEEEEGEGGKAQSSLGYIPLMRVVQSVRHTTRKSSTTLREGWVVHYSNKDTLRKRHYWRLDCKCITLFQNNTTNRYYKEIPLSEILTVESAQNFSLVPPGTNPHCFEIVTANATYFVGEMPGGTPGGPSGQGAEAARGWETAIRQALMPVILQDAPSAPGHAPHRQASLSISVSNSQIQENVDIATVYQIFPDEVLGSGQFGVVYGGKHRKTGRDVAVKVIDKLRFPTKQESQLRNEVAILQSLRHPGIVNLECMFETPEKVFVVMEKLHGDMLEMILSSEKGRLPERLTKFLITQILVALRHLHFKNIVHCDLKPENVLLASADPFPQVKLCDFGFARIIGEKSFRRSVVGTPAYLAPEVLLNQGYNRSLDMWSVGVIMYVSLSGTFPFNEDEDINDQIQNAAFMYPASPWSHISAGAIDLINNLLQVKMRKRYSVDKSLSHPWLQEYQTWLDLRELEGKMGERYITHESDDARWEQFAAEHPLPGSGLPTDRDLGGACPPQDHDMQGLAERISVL

[6] = biological target: Ras-related protein Rab-6A (Homo sapiens, UniProt P20340)
Ras-related protein Rab-6A, sequence (P20340 whole entry): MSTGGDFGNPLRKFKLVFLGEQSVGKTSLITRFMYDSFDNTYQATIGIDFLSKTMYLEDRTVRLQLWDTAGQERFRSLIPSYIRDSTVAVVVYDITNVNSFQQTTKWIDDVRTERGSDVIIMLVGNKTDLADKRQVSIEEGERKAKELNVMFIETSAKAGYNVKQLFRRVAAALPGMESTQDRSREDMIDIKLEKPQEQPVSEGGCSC

ADP/ATP translocase 3 = biological target: T5, ADP/ATP translocase 3 (Homo sapiens, UniProt P12236)
T5 sequence (P12236 whole entry): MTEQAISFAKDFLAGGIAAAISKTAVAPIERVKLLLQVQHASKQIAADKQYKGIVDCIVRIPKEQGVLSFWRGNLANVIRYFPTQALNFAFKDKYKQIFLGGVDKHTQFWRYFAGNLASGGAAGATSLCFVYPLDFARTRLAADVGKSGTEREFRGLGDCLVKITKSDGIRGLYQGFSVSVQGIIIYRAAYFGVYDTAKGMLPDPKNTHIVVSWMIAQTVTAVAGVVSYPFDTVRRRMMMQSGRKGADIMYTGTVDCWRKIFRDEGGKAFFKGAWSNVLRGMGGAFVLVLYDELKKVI
Also: in the data inactive means no Kd found up to 30 µM.

Tyrosine-protein kinase ABL2, sequence (P42684 whole entry): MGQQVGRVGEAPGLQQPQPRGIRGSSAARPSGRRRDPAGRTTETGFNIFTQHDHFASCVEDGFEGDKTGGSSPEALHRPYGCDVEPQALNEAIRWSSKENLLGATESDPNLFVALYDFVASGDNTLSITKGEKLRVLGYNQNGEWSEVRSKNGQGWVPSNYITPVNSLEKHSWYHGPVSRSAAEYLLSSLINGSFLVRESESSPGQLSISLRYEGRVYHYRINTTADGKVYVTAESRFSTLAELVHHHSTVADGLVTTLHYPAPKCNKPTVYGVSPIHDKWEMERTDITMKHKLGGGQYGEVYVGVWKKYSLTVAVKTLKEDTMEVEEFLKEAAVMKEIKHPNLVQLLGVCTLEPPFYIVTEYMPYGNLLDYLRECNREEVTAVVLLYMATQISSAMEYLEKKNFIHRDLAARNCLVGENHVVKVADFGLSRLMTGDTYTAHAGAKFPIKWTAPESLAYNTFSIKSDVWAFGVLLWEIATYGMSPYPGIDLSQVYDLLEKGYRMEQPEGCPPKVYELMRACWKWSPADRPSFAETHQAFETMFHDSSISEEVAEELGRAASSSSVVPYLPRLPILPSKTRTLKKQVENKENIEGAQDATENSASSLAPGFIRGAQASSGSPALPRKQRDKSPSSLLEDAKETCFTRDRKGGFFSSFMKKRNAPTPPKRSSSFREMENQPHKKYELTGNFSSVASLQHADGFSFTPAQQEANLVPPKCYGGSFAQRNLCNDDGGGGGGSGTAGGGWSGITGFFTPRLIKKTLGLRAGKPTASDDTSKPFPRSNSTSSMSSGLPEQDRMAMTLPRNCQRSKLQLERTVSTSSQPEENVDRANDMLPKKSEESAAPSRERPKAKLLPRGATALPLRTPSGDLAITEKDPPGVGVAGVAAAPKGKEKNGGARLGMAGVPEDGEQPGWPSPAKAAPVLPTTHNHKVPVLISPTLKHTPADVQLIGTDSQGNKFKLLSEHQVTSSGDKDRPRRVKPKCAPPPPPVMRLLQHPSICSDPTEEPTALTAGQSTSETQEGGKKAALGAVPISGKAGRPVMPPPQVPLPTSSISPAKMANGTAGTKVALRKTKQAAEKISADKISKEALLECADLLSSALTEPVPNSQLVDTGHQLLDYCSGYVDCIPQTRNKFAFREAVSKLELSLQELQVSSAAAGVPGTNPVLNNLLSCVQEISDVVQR

| Structure (SMILES) | Kd [1] | Kd [2] | Kd (Ephrin type-A receptor 2) | Kd [3] | Kd [4] | Kd (Obg-like ATPase 1) | Kd [5] | Kd [6] | Kd (ADP/ATP translocase 3) |
| --- | --- | --- | --- | --- | --- | --- | --- | --- | --- |
| COCCN1CCN(Cc2ccc(-c3n[nH]c4c3C(=O)c3c(NC(=O)NN5CCOCC5)cccc3-4)cc2)CC1 [RGB-286638] | > 30 µM (inactive) | > 30 µM (inactive) | > 30 µM (inactive) | 0.008 µM (active) | > 30 µM (inactive) | > 30 µM (inactive) | 0.195 µM (active) | > 30 µM (inactive) | > 30 µM (inactive) |
| C=CC(=O)Nc1cccc(Nc2nc(Nc3ccc(N4CCN(C(C)=O)CC4)cc3OC)ncc2C(F)(F)F)c1 [ROCILETINIB] | > 30 µM (inactive) | > 30 µM (inactive) | > 30 µM (inactive) | > 30 µM (inactive) | > 30 µM (inactive) | > 30 µM (inactive) | > 30 µM (inactive) | > 30 µM (inactive) | > 30 µM (inactive) |
| O=C(NOC[C@H](O)CO)c1ccc(F)c(F)c1Nc1ccc(I)cc1F [MIRDAMETINIB] | > 30 µM (inactive) | > 30 µM (inactive) | > 30 µM (inactive) | > 30 µM (inactive) | > 30 µM (inactive) | > 30 µM (inactive) | > 30 µM (inactive) | > 30 µM (inactive) | > 30 µM (inactive) |
| COc1cc2nccc(Oc3ccc(NC(=O)C4(C(=O)Nc5ccc(F)cc5)CC4)cc3)c2cc1OC [CABOZANTINIB] | 0.918 µM (active) | > 30 µM (inactive) | 0.746 µM (active) | > 30 µM (inactive) | > 30 µM (inactive) | > 30 µM (inactive) | > 30 µM (inactive) | > 30 µM (inactive) | > 30 µM (inactive) |
| C[C@@H]1COC(Nc2ccc3ncnc(Nc4ccc(OCc5nccs5)c(Cl)c4)c3c2)=N1 [VARLITINIB] | > 30 µM (inactive) | > 30 µM (inactive) | > 30 µM (inactive) | > 30 µM (inactive) | > 30 µM (inactive) | > 30 µM (inactive) | > 30 µM (inactive) | > 30 µM (inactive) | > 30 µM (inactive) |
| COc1ccc(-c2ccc3ncc4c(c3c2)n(-c2ccc(N3CCNCC3)c(C(F)(F)F)c2)c(=O)n4C)cn1 [BGT-226 FREE BASE] | > 30 µM (inactive) | > 30 µM (inactive) | > 30 µM (inactive) | > 30 µM (inactive) | > 30 µM (inactive) | > 30 µM (inactive) | > 30 µM (inactive) | > 30 µM (inactive) | > 30 µM (inactive) |
| CCN(CCCOc1ccc2c(Nc3cc(CC(=O)Nc4cccc(F)c4)n[nH]3)ncnc2c1)CCOP(=O)(O)O [BARASERTIB] | > 30 µM (inactive) | > 30 µM (inactive) | > 30 µM (inactive) | > 30 µM (inactive) | > 30 µM (inactive) | > 30 µM (inactive) | > 30 µM (inactive) | 0.033 µM | > 30 µM (inactive) |
| Cc1cc(Nc2nc(N[C@@H](C)c3ncc(F)cn3)ncc2Cl)n[nH]1 [AZD-1480] | > 30 µM (inactive) | > 30 µM (inactive) | > 30 µM (inactive) | > 30 µM (inactive) | > 30 µM (inactive) | > 30 µM (inactive) | > 30 µM (inactive) | > 30 µM (inactive) | > 30 µM (inactive) |
| CCc1cc2c(cc1N1CCC(N3CCOCC3)CC1)C(C)(C)c1[nH]c3cc(C#N)ccc3c1C2=O [ALECTINIB] | > 30 µM (inactive) | > 30 µM (inactive) | > 30 µM (inactive) | > 30 µM (inactive) | > 30 µM (inactive) | > 30 µM (inactive) | > 30 µM (inactive) | > 30 µM (inactive) | > 30 µM (inactive) |
| O=S(=O)(c1cccc2c(O)nccc12)N1CCCNCC1 [HYDROXYFASUDIL] | > 30 µM (inactive) | > 30 µM (inactive) | > 30 µM (inactive) | > 30 µM (inactive) | > 30 µM (inactive) | > 30 µM (inactive) | 2.54 µM (active) | > 30 µM (inactive) | > 30 µM (inactive) |
